Experimental data: the supplement of paper PMC12076712

What was measured:
Assay in all cases: pIC50, kinobeads binding competition
ADCK1 = molecular target: T1, ADCK1 (UniProt Q86TW2); conditions: cell material: Lysate mix
T1 sequence (whole entry): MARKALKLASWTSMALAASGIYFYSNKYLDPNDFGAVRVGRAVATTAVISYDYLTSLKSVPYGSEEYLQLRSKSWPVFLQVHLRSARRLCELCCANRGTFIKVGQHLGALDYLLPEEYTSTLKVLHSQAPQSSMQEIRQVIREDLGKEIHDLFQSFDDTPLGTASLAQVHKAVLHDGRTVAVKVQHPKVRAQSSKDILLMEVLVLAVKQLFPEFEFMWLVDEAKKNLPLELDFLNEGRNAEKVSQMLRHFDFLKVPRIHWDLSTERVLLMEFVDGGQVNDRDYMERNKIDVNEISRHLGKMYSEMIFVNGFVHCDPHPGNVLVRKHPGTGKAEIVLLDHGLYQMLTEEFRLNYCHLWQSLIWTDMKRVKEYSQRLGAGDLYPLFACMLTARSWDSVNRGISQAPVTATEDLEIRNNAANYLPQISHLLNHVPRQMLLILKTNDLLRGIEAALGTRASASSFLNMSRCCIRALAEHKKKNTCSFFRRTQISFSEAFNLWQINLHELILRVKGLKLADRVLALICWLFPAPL
Procedure, shortened: (§1)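 Jurkat cells were exposed alive to nine compound concentrations (top 30 μM, 1:4 steps) or vehicle for 60 min at 37 °C and then lysed. In a second format, nine concentrations (top 30 μM, 1:5 steps) were incubated for 60 min at 4 °C with Jurkat lysate or with a 1:1:1:1 lysate mix of HEK293, K-562, HepG2 and placenta. Proteins captured on Kinobeads were digested and quantified by TMT10 LC-MS/MS. pIC50 values were derived from logistic dose-response fits (R drc package) of fold changes relative to vehicle, in biological duplicates.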

BTK = BTK (UniProt Q06187); conditions: cell material: Lysate mix
Chain of BTK (Q06187 whole entry): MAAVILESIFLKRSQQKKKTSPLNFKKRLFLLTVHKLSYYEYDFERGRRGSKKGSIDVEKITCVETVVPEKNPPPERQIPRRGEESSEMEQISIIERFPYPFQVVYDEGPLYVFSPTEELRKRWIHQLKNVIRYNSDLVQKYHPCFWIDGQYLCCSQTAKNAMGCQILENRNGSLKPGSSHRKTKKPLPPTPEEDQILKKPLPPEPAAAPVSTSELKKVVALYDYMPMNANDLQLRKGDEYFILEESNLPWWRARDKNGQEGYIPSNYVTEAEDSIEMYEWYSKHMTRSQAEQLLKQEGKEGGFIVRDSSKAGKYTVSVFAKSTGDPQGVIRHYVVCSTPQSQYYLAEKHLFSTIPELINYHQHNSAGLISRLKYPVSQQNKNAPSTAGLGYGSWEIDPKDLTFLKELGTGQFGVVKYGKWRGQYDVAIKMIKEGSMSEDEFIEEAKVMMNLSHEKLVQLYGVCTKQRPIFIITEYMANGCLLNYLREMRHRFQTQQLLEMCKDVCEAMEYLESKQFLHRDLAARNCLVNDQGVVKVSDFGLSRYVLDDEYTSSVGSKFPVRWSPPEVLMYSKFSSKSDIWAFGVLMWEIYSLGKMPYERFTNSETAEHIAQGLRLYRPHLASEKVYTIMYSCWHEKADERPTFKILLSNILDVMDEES
Procedure, shortened: as §1

DAPK1 = DAPK1 (UniProt P53355); conditions: cell material: Lysate mix
Procedure, shortened: as §1

EPHA1 = molecular target: T2, EPHA1 (UniProt P21709); conditions: cell material: Lysate mix
T2 sequence (whole entry): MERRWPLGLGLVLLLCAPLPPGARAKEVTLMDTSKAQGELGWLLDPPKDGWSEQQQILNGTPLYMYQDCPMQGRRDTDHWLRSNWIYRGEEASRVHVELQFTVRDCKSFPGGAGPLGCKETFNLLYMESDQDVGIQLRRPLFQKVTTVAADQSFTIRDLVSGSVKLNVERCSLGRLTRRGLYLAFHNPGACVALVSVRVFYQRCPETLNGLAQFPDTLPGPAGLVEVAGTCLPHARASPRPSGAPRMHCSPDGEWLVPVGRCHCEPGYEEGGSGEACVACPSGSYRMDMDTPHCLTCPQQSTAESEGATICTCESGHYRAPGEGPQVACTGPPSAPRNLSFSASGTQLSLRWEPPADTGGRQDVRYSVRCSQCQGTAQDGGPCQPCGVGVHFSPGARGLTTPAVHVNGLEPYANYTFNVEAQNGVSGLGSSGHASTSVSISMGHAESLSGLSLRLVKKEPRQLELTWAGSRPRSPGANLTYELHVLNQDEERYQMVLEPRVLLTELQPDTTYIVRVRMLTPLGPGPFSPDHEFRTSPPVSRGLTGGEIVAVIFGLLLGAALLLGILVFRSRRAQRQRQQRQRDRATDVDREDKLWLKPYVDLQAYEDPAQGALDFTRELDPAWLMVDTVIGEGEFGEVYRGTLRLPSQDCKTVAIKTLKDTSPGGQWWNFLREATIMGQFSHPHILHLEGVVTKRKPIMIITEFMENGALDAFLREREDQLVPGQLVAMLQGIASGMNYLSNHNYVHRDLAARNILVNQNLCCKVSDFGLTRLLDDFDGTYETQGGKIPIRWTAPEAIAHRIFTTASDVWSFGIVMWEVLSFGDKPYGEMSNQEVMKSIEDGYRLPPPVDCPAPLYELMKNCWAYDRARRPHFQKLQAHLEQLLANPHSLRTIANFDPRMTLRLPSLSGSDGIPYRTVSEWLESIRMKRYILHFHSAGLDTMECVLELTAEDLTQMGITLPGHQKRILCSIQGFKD
Procedure, shortened: as §1

RPS6KA4 = RPS6KA4 (UniProt O75676)
Chain of RPS6KA4 (O75676 whole entry, looked up): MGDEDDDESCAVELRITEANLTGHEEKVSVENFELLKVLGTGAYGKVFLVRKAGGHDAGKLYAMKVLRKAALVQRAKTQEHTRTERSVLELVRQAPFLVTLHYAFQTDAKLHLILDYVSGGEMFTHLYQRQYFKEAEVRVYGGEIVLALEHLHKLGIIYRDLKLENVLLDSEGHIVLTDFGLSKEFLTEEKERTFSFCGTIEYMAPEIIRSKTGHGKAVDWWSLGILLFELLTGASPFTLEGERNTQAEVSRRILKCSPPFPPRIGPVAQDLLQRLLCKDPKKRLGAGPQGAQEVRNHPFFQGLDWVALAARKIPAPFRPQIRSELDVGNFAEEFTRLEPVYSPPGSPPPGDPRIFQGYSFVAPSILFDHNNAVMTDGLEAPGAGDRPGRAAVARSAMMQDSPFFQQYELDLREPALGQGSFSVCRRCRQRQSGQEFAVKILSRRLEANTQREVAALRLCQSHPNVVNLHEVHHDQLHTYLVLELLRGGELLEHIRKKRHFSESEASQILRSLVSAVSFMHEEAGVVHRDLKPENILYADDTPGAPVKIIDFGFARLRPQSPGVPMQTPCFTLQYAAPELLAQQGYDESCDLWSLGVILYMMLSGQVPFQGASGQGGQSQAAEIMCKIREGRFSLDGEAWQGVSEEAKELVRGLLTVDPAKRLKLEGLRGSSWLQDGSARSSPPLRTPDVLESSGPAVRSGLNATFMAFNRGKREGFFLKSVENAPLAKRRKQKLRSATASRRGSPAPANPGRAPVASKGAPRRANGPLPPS
Procedure, shortened: as §1

UniProt P00519 = molecular target: UniProt P00519
Procedure, shortened: as §1

UniProt Q00537 = molecular target: UniProt Q00537
Chain of UniProt Q00537 (Q00537 whole entry, looked up): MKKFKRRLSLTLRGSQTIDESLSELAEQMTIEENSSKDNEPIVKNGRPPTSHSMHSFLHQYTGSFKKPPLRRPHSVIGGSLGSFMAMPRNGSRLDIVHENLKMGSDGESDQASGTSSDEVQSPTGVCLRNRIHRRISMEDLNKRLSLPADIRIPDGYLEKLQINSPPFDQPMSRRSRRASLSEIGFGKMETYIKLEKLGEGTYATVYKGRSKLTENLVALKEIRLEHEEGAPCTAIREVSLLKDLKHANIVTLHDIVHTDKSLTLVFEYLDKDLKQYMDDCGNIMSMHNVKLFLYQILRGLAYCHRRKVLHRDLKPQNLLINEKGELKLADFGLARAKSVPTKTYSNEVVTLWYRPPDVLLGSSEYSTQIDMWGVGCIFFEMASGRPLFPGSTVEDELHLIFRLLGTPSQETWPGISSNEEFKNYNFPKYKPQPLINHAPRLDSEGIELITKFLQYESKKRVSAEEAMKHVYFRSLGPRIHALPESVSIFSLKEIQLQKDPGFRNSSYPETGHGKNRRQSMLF
Procedure, shortened: as §1

AKT2 = AKT2 (UniProt P31751)
Chain of AKT2 (P31751 whole entry): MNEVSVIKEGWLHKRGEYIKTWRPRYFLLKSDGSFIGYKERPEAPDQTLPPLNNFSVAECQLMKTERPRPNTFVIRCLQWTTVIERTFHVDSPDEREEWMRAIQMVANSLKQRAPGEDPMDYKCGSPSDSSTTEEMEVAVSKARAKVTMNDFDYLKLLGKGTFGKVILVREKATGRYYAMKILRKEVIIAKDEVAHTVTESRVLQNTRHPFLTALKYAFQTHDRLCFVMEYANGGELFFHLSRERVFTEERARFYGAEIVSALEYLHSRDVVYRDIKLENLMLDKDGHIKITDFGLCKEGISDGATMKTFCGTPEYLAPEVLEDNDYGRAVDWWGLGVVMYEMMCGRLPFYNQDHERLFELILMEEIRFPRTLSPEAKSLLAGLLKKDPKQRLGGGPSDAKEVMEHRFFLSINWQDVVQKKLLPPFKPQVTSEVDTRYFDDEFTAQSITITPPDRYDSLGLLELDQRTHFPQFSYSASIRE
Procedure, shortened: as §1

MAPKAPK3 = MAPKAPK3 (UniProt Q16644)
Chain of MAPKAPK3 (Q16644 whole entry, looked up): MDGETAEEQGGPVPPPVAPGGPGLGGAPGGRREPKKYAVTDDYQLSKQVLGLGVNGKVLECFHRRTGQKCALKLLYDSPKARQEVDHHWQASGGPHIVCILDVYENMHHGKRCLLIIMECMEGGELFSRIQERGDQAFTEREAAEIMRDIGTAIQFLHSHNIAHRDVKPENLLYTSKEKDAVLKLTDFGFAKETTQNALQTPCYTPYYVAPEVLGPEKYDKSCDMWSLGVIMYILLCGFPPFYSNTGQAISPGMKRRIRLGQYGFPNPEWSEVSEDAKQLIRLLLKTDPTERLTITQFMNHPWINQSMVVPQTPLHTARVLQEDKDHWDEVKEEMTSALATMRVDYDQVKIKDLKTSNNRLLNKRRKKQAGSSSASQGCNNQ
Procedure, shortened: as §1

PRKACB = PRKACB (UniProt P22694)
Procedure, shortened: as §1

PRPF4B = PRPF4B (UniProt Q13523); conditions: cell material: Lysate mix
Chain of PRPF4B (Q13523 whole entry, looked up): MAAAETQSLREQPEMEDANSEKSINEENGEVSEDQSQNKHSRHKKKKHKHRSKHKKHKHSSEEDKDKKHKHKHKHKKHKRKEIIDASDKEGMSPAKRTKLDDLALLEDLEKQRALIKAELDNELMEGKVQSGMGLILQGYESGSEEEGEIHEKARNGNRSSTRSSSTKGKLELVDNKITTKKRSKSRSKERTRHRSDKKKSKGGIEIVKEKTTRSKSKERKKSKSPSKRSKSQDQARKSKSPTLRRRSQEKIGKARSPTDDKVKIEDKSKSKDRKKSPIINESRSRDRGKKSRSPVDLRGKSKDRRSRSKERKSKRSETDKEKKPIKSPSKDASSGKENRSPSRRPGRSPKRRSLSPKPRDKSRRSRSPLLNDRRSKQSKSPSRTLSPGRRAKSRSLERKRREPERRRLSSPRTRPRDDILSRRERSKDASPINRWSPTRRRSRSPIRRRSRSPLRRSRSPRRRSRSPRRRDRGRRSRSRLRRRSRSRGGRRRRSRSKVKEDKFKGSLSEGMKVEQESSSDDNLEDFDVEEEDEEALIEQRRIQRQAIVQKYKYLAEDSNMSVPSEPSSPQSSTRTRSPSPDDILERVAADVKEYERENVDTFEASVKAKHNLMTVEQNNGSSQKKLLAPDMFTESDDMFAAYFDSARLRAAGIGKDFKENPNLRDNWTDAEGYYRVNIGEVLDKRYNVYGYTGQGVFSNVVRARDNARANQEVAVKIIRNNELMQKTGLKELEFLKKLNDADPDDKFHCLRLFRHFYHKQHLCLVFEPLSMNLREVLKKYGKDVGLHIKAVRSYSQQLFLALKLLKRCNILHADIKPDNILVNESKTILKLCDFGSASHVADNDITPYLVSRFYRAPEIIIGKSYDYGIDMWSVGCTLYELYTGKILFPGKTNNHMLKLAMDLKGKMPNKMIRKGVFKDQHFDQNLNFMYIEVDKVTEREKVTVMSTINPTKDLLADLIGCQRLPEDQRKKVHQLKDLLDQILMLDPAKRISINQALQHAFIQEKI
Procedure, shortened: as §1

UniProt P80192 = molecular target: UniProt P80192
Chain of UniProt P80192 (P80192 whole entry, looked up): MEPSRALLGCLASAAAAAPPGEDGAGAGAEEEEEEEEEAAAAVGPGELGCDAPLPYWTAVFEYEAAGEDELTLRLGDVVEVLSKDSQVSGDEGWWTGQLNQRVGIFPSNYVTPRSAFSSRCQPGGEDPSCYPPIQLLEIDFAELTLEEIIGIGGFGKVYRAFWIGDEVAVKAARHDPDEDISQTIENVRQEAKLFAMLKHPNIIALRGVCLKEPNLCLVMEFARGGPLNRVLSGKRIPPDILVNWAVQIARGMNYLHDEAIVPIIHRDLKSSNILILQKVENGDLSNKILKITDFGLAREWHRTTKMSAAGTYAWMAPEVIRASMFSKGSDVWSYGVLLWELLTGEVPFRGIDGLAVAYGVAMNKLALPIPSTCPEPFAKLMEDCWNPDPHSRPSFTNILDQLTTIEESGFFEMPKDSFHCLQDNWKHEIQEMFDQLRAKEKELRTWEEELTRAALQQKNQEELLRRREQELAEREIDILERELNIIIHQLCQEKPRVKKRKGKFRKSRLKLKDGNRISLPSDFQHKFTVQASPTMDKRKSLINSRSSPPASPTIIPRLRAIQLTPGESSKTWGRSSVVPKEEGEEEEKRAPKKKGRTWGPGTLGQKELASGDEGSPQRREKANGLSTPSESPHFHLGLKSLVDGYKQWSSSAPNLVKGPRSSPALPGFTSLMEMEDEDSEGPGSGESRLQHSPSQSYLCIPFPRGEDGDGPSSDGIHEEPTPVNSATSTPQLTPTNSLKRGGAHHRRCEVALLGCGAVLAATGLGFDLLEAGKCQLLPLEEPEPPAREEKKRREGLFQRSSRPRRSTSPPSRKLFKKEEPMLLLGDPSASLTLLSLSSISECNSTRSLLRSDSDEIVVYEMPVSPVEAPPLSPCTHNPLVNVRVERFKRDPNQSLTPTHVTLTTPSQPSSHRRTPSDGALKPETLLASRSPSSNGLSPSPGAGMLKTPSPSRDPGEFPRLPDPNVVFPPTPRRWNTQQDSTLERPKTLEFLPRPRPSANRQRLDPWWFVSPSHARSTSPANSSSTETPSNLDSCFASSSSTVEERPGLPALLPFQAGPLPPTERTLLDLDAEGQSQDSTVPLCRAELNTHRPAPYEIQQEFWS
Procedure, shortened: as §1

UniProt Q8NEB9 = molecular target: UniProt Q8NEB9
Procedure, shortened: as §1

SMILES	pIC50 (ADCK1)	pIC50 (BTK)	pIC50 (DAPK1)	pIC50 (EPHA1)	pIC50 (RPS6KA4; cell material: Lysate mix)	pIC50 (UniProt P00519; cell material: Lysate mix)	pIC50 (UniProt Q00537; cell material: Lysate mix)	pIC50 (PRPF4B)	pIC50 (UniProt P80192; cell material: Lysate mix)	pIC50 (MAPKAPK3; cell material: Lysate mix)	pIC50 (PRKACB; cell material: Jurkat cells)	pIC50 (AKT2; cell material: Lysate mix)	pIC50 (UniProt Q8NEB9; cell material: Lysate mix)	pIC50 (PRKACB; cell material: Lysate mix)	pIC50 (AKT2; cell material: Jurkat cells)	pIC50 (MAPKAPK3; cell material: Jurkat cells)	pIC50 (MAPKAPK3; cell material: Jurkat lysate)	pIC50 (PRKACB; cell material: Jurkat lysate)	pIC50 (RPS6KA4; cell material: Jurkat cells)	pIC50 (RPS6KA4; cell material: Jurkat lysate)	pIC50 (UniProt P00519; cell material: Jurkat cells)	pIC50 (UniProt P00519; cell material: Jurkat lysate)	pIC50 (UniProt P80192; cell material: Jurkat cells)	pIC50 (UniProt P80192; cell material: Jurkat lysate)	pIC50 (UniProt Q00537; cell material: Jurkat cells)	pIC50 (UniProt Q00537; cell material: Jurkat lysate)	pIC50 (UniProt Q8NEB9; cell material: Jurkat cells)
C#CCNC(=O)c1cc(Nc2cc(C3CC3)[nH]n2)nc(N2CCN(Cc3ccc(S(=O)(=O)F)cc3)CC2)n1	< 4.52	–	< 4.52	4.66	5.56	4.67	5.7	< 4.52	6.2	–	–	–	–	–	5.74	6.53	6.64	< 4.52	5.84	4.83	5.64	4.67	6.42	5.9	6.39	5.11	4.87
O=C(NCCNC(=O)c1cc(Nc2cc(C3CC3)[nH]n2)nc(N2CCN(Cc3ccc(S(=O)(=O)F)cc3)CC2)n1)OC1CC/C=C/CCC1 (stereo not given)	< 4.52	< 4.52	< 4.52	< 4.52	< 4.52	< 4.52	< 4.52	< 4.52	< 4.52	< 4.52	< 4.52	–	–	–	< 4.52	6.36	6.28	< 4.52	5.8	< 4.52	4.86	< 4.52	6.19	< 4.52	5.68	< 4.52	< 4.52
Cc1cc(Nc2cc(C(=O)NCCNC(=O)OC3CC/C=C/CCC3)nc(N3CCN(Cc4ccc(S(=O)(=O)F)cc4)CC3)n2)n[nH]1 (stereo not given)	< 4.52	< 4.52	< 4.52	< 4.52	< 4.52	< 4.52	< 4.52	< 4.52	< 4.52	–	–	–	–	< 4.52	–	–	–	–	–	–	–	–	–	–	–	–	–

Further lines, with some results ahead:

pIC50 (ADCK1)	pIC50 (BTK)	pIC50 (DAPK1)	pIC50 (EPHA1)	pIC50 (RPS6KA4; cell material: Lysate mix)	pIC50 (UniProt P00519; cell material: Lysate mix)	pIC50 (UniProt Q00537; cell material: Lysate mix)	pIC50 (PRPF4B)	pIC50 (UniProt P80192; cell material: Lysate mix)	pIC50 (MAPKAPK3; cell material: Lysate mix)	pIC50 (PRKACB; cell material: Jurkat cells)	pIC50 (AKT2; cell material: Lysate mix)	pIC50 (UniProt Q8NEB9; cell material: Lysate mix)	pIC50 (PRKACB; cell material: Lysate mix)	SMILES	pIC50 (AKT2; cell material: Jurkat cells)	pIC50 (MAPKAPK3; cell material: Jurkat cells)	pIC50 (MAPKAPK3; cell material: Jurkat lysate)	pIC50 (PRKACB; cell material: Jurkat lysate)	pIC50 (RPS6KA4; cell material: Jurkat cells)	pIC50 (RPS6KA4; cell material: Jurkat lysate)	pIC50 (UniProt P00519; cell material: Jurkat cells)	pIC50 (UniProt P00519; cell material: Jurkat lysate)	pIC50 (UniProt P80192; cell material: Jurkat cells)	pIC50 (UniProt P80192; cell material: Jurkat lysate)	pIC50 (UniProt Q00537; cell material: Jurkat cells)	pIC50 (UniProt Q00537; cell material: Jurkat lysate)	pIC50 (UniProt Q8NEB9; cell material: Jurkat cells)
< 4.52	< 4.52	< 4.52	< 4.52	4.84	< 4.52	< 4.52	–	–	–	–	–	–	–	C#CCNC(=O)c1cc(Nc2cc(C)[nH]n2)nc(N2CCN(Cc3ccc(S(=O)(=O)F)cc3)CC2)n1	–	–	–	–	–	–	–	–	–	–	–	–	–
–	–	4.6	–	5.34	–	5.52	5.12	5.78	–	–	< 4.52	< 4.52	–	CCNC(=O)c1cc(Nc2cc(C3CC3)[nH]n2)nc(N2CCN(Cc3ccc(S(=O)(=O)F)cc3)CC2)n1	–	–	–	–	–	–	–	–	–	–	–	–	–
< 4.52	< 4.52	–	< 4.52	–	< 4.52	–	–	–	5.74	–	–	–	< 4.52	CCNC(=O)c1cc(Nc2cc(C)[nH]n2)nc(N2CCN(Cc3ccc(S(=O)(=O)F)cc3)CC2)n1	–	–	–	–	–	–	–	–	–	–	–	–	–
